Paper PMC5673308, “Two single-point mutations shift the ligand selectivity of a pheromone receptor between two closely related moth species” (eLife, 2017)
Positions count from the first letter of the chain named.

Key:
Experiment in all cases: two-electrode voltage clamp, Xenopus oocytes
Type in all cases: cell-based
Settings in all cases: holding potential −80 mV, pH 7.5, agonist
HarmOr14b/HarmOrco = target: T1, HarmOr14b/HarmOrco (Helicoverpa armigera, UniProt R4JUU3)
T1 construct: gene OR14b; full-length Or14b, pCS2+ vector, cRNA co-injected with Orco in Xenopus laevis oocytes; with Odorant receptor coreceptor
T1 sequence (R4JUU3 1-440): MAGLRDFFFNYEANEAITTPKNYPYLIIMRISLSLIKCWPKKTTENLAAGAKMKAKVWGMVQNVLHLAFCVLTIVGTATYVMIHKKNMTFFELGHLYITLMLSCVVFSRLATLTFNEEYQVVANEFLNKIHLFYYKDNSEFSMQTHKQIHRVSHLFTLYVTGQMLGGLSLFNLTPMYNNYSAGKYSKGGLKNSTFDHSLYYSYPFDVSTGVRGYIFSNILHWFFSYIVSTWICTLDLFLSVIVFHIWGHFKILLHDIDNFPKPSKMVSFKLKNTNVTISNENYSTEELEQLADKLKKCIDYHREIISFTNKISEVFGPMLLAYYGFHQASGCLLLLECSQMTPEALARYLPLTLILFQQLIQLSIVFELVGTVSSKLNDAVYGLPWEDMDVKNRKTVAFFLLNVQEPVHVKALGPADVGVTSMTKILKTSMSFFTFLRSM
T1 sequence (A0A075TD45 1-473 partner): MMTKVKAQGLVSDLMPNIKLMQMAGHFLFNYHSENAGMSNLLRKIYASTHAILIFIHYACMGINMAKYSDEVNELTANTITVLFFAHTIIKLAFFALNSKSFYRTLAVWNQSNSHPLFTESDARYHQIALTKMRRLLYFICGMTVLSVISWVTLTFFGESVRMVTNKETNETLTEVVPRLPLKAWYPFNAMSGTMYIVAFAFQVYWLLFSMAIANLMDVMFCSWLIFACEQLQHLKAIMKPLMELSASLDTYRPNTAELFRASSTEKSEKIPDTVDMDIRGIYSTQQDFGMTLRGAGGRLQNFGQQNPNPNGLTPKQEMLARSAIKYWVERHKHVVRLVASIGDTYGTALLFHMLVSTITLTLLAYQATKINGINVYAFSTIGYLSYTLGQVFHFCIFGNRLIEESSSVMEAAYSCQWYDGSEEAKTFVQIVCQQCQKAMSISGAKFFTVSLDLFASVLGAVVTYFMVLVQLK

HassOr16/HassOrco = target: T2, HassOr16/HassOrco (Helicoverpa assulta, UniProt C6K7C1)
T2 construct: full-length Or16, pCS2+ vector, cRNA co-injected with Orco in Xenopus laevis oocytes; with Odorant receptor coreceptor
T2 sequence (C6K7C1 1-422): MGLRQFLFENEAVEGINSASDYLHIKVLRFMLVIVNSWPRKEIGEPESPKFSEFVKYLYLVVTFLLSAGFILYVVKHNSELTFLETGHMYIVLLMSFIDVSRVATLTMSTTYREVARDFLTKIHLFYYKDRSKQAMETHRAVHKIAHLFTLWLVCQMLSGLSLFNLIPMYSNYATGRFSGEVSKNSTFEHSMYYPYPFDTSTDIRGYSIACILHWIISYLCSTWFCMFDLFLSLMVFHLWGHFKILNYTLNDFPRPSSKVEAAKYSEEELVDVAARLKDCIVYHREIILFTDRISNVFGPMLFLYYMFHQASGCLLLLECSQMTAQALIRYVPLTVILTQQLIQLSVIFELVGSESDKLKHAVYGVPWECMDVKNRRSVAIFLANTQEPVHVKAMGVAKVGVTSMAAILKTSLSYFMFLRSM
T2 sequence (A7UGE1 1-473 partner): T1 sequence (A0A075TD45 1-473 partner) with F55V

HassOr6/HassOrco = target: T3, HassOr6/HassOrco (Helicoverpa assulta, UniProt R4JLZ7)
T3 construct: gene OR6; full-length Or6, pCS2+ vector, cRNA co-injected with Orco in Xenopus laevis oocytes; with Odorant receptor coreceptor
T3 sequence (R4JLZ7 1-425): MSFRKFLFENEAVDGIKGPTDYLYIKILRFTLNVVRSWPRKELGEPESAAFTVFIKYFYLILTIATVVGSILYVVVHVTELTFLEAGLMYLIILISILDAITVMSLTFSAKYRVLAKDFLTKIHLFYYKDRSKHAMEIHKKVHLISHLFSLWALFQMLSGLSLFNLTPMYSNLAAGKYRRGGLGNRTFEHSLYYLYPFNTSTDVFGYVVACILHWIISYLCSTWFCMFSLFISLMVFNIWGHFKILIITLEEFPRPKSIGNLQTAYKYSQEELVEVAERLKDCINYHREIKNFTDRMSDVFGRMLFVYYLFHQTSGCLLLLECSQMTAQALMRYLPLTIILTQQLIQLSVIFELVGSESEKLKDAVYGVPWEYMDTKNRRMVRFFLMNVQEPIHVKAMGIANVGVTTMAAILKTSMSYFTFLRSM
T3 sequence (A7UGE1 1-473 partner): T1 sequence (A0A075TD45 1-473 partner) with F55V

| inward current at 10^-4 M (HassOr16/HassOrco) | inward current at 10^-4 M (HassOr6/HassOrco) | Structure (SMILES) | inward current at 10^-4 M (HarmOr14b/HarmOrco) |
| --- | --- | --- | --- |
| HassOr16 is specific for Z9-14:Ald |  | CCCC/C=C\CCCCCCCC=O [Z9-14:Ald, (Z)−9-tetradecenal] | HarmOr14b is specifically tuned to Z9-14:Ald |
|  | HassOr6 is mainly tuned to Z9-16:OH | CCCCCC/C=C\CCCCCCCCO [Z9-16:OH, (Z)−9-hexadecenol] |  |
|  |  | CCCCCC/C=C\CCCCCCCC=O [Z9-16:Ald, (Z)−9-hexadecenal] | HarmOr14b is specifically tuned to Z9-14:Ald, and also weakly responds to Z9-16:Ald |
